Reference: patent publication US20120252773A1, “Method and composition for inhibiting cell proliferation and angiogenesis” (priority 2005, published 2012)

Test system: DU-145 Human Androgen-Independent Prostate Cancer Cells
Assay: Apoptosis by TUNEL assay in DU-145 cells
Format: cell-based
Conditions: DU-145, 10 μM, 24 hours
Experimental: DU-145 cells (ATCC) were treated with 10 μM (2) for 24 hours. Apoptosis was measured by the terminal deoxynucleotidyl transferase mediated dUTP nick end labeling (TUNEL) assay. This assay was conducted using the Apoptosis Detection Kit (Promega, Madison, Wis.) following the instructions provided by the manufacturer. Briefly, DU-145 cells were incubated with (2) for 24, 48, or 72 hours. At the end of incubation, cells were fixed with freshly prepared 4% methanol-free paraformaldehyde in PBS, washed, and then permeabilized in 0.2% Triton X-100 in PBS. The cells on the slides were then incubated with Tdt enzyme for 1 h at 37° C., stained with propidium iodide, and examined under a fluorescence microscope. Fragmented DNA was made visible with green fluorescence stain within the apoptotic cells.

Structure (SMILES): C[C@@H]1Cc2cc(O)ccc2C2CCC3(C)/C(=C/COCCN(C)C)CCC3C21 (stereo partly drawn) [Compound (2), (E)-3-Hydroxy-7α-methyl-21-[(2-dimethylamino)ethoxy]-19-norpregna-1,3,5(10),17(20)-tetraene]
- apoptosis, fragmented DNA (TUNEL): quite a few pieces of fragmented DNA were evident
